Tests used:
[1] = test system: CREB phosphorylation (pCREB); assay: CREB phosphorylation (pCREB) immunoblotting in cortical neurons; assay type: cell-based, rat; details: presence or absence of ifenprodril; FIG. 15a
Protocol: Dissociated cultures of rat cortical neurons were prepared from 18 day-old Sprague Dawley rat embryos as described previously. To obtain mixed cortical cultures enriched with neurons, uridine (10 μM) and 5-Fluor-2′-deoxyuridine (10 μM) were added to the culture medium at 3 days in vitro (DIV) and maintained for 48 h to inhibit non-neuronal cell proliferation before the cultures were returned to the normal culture medium. Mature neurons (11-14 DIV) were used for experiments. Mouse cortical cultures were prepared using embryos at 18 days post-coitum from litters resulting from heterozygote GluN2A+/− or GluN2B+/− matings. To obtain homozygous and wild-type (WT) littermate control neuronal cultures, cortical cells from individual embryos were plated separately. Genotyping was performed as described previously using tail samples collected from each embryo. To induce neuronal apoptosis, cortical cultures were stimulated with NMDA (50 μM) and glycine (10 μM) for 20 min, or STS (100 nM) for 1 h in Mg2+-free extracellular solution (ECS) containing the following (in mM): 25 HEPES acid, 140 NaCl, 33 glucose, 5.4 KCl, and 1.3 CaCl2, with pH 7.35 and osmolarity 320-330 mOsm. […]

cortical neurons = assay: NMDA-induced excitotoxicity (LDH release) in cortical neurons; assay type: cell-based, rat; details: in the absence of NVP-AAM007; FIG. 16
Protocol: Lactate dehydrogenase (LDH) is a cytoplasmic enzyme that can convert nicotinamide adenine dinucleotide (NAD) into NADH (the reduced form). LDH is released from cells into culture medium when the plasma membrane integrity is compromised. Therefore, the amount of released LDH represents the degree of cell death. In this study, the extracellular LDH level was measured using an in vitro toxicology assay kit obtained from Sigma-Aldrich (no. TOX-7). The basis of this LDH assay is as follows: (1) LDH reduces NAD into NADH, (2) the resulting NADH is then used in the stoichiometric conversion of a tetrazolium dye, and (3) the resulting colored compound is measured by a spectrophotometric microplate reader at a wavelength of 490 nm. The cell death rate was expressed as a ratio (%) between the absorbance of the treated group and that of the control group.
Cortical cultures were treated with Npam43, and assessed for NMDA-induced excitotoxicity after 20-24 hrs by measuring lactate dehydrogenase (LDH) release. […] LDH release was measured using an in vitro toxicology assay kit obtained from Sigma-Aldrich (no. TOX-7). The cell death rate was expressed as a ratio (%) between the absorbance of the treated group and that of the control group.

GABAR = assay: GABA-induced currents in cultured hippocampal neurons; assay type: cell-based
Protocol: Whole cell patch-clamp recordings were performed under voltage-clamp mode using an Axopatch 200B or 1D patch-clamp amplifier (Molecular Devices). Whole-cell currents were recorded at a holding potential of −60 mV unless indicated elsewhere, and signals were filtered at 2 kHz, digitized at 10 kHz (Digidata 1322A). Recording pipettes (3-5 MΩ) were filled with the intracellular solution that contained (mM): CsCl 140, HEPES 10, Mg-ATP 4, QX-314 5, pH 7.20; osmolarity, 290-295 mOsm. BAPTA (10 mM) was added in the intracellular solution (otherwise specified). The coverslips were continuously superfused with the extracellular solution containing (mM): NaCl 140, KCl 5.4, HEPES 10, CaCl2 1.3, glucose 20, pH 7.4; osmolarity, 305-315 mOsm. NMDA, GABA or AMPA induced currents were either applied by NMDA, GABA, AMPA either through perfusion fast-step (Warner Instruments). […]
Next, the inventor evaluated the selectivity profile for Npam02 on two other key ionotropic receptors of the central nervous system (CNS): α-amino-3-hydroxy-5-methyl-4-isoxazolepropionic acid receptor AMPAR, which are known to be a non-NMDA type ionotropic transmembrane receptor for glutamate that mediates fast synaptic transmission in the central nervous system (CNS) and GABA receptors which are the principal inhibitory ligand-gated ion channel receptor. […]

Row | Structure (SMILES) | CREB phosphorylation (pCREB) [1] | NMDA-induced excitotoxicity (cortical neurons) | Effect on GABAR mediated currents (GABAR)
1 | CCOc1cc(Cl)c(Cl)c(/C=N/NC(=O)c2ccccc2Br)c1O [Npam43, (E)-2-bromo-N′-(2,3-dichloro-5-ethoxy-6-hydroxybenzylidene)benzohydrazide] | increases | reduced | –
2 | COc1cccc(/C=N/NC(=O)c2ccccc2C)c1O [Npam02, (E)-N′-(2-hydroxy-3-methoxybenzylidene)-2-methylbenzohydrazide] | – | – | no observable effects

From patent US11166924B2, “N-methyl-d-aspartate receptor allosteric modulators and methods for their use” (Qingdao Primedicine Pharmaceutical Company, Ltd., priority 2016, dated 2021)
